# In patent US5488049A, “Method of treating learning and memory disorders using benzothiadiazide derivatives as nootropic agents” (FIDIA - Georgetown Institute for the Neuro-Sciences, priority 1993, dated 1996):
# System: EPSCs elicited in CAl pyramidal neurons
# Experiment: Excitatory postsynaptic currents (EPSCs) in CAl pyramidal neurons in hippocampal slices on stimulation of Schaffer collateral afferents
# Type: cell-based, rat
# Method: Young rats (12-16 days old) were decapitated and the brains quickly removed and placed in ice-cold Ringer solution. Thin slices of hippocampus (250 μm) were then cut with a vibratome slicer (Lancer, St. Louis, Mo.) and kept in Ringer solution at 37° C. until use. The experiments were carried out at room temperature with the slice totally submerged in a 1 ml volume recording chamber and under continuous perfusion with Ringer solution at a rate of 6 ml/min using an upright Hoffman modulation contrast microscope (Carl Zeiss, Germany) equipped with a 40×water immersion objective.
# Ionic currents in whole-cell configuration and outside-out excised membrane patches were monitored using the patch clamp technique (15).
# Traces were filtered at 3 KHz (-3 dB, 8-pole, lowpass Bessel filter, Frequency Devices), and stored in an LSI 11/73 computer (INDEC System, Sunnyvale, Calif.) after digitization (10 KHz) with a Data Translation analog to digital converter. Decay time constants of EPSC and glutamate-activated currents were determined from exponential fitting with the 11/73 system by using an entirely automated least-squares procedures (see Vicini and Schuetze, 1985, for further details). This method uses a Simplex algorithm (Caceci and Cacheris, 1984) to fit the data to either a single or double exponential equation of the form I(t)=If exp(-t/tauf)+Is exp(-t/taus), where If and Is are the amplitudes of the sIPSC fast and slow components, and tauf and taus are their respective decay time constants. Peak amplitudes were measured at the absolute maximum of the currents, taking into account the noise of the baseline and noise around the peak. Rise times were measured as the time elapsed from 20 to 80% of the peak amplitude of the response.
# The action of nootropic drugs on the excitatory postsynaptic currents (EPSCs) elicited in CAl pyramidal neurons in hippocampal slices was investigated by stimulation of the Schaffer collateral afferents.
smiles,measurement,setting,value
"CC1Nc2ccc(Cl)cc2S(=O)(=O)N1 (racemic) [IDRA 21, 7-chloro-3-methyl-3,4-dihydro-2H 1,2,4-benzothiadiazine S-S dioxide]",Emax at 1000 µM,"Rattus norvegicus, Pyramidal neuron, read-out: efficacy in increasing delay time of AMPA current (EPSC) relative to diazoxide",300%
same,Emax,"Rattus norvegicus, Pyramidal neuron, read-out: response relative to diazoxide (electrophysiology summary)",300%
same,response relative to aniracetam (electrophysiology summary),summary statement,one order of magnitude larger than that of aniracetam
